This is an account of results in patent publication US4233309A, “Novel 1-substituted-3-acylpyrrole derivatives, platelet aggregation inhibitors containing them, as active ingredients, and processes for production of said derivatives” (Teijin Limited, priority 1977, dated 1980).

Read-outs that look alike come from different tables or passages of the source.

The test system of one test is carrageenan edema. As to the kind of experiment: Antiinflammatory activity (carrageenan edema of rat paw, Table 5). The note with it: 100 mg/kg orally, 3 h after 1% carrageenan. The format is in vivo, Sprangue-Dawley (SD) male rats. As for the experimental part: Sprangue-Dawley (SD) male rats with a body weight of 160 to 180 g, four in each group, were used. The volume of the left leg was measured, and each of the test compounds shown in Table 5 (100 mg/kg dissolved in polyethylene glycol so as to provide a volume of 2 ml/kg) was orally administered. One hour later, 0.1 ml of 1% carrageenan (dissolved in physiological saline) as an inflammation-inducing substance was subcutaneously injected to the paw of the left hind leg. A control group was orally administered with 2 ml/kg of polyethylene glycol. As a positive control, 25 mg/kg of Ibprofen was similarly administered. Three hours after the injection of 1% carrageenan, the volume of the left leg was measured, and the ratio of edema was calculated from the volume before the administration of the carrageenan. The percent inhibition of edema in comparison with the control group was determined.

For test [1], the system named is biosynthesis of prostaglandins (microsomes of the seminal vesicle of bovine). Briefly: Inhibitory effect on prostaglandin biosynthesis in vitro (Table 3). The format is biochemical. The following applies: 4 μg/ml sodium arachidonate, bioassay on rat fundus stomach strips. As for the experimental part:
Sprangue-Dawley rats (male, 180-200 g) were fasted overnight, and killed by blow on the head. The stomach was isolated, and fundus stomach strips were prepared. The smooth muscle strips were perfused with Krebs-Hensleit solution (gassed with 95% O2 +5% CO2 gas) of 37° C. at a rate of […]. The Krebs-Hensleit solution contained 0.1 μg/ml of atropine, 0.1 μg/ml of phenoxybenzamine, 3 μg/ml of propranolol, 0.1 μg/ml of tripelennamine, and 0.2 μg/ml of methylsergide to prevent the effect of smooth muscle contracting substances, and 1 μg/ml of indomethacine to inhibit the biosynthesis of prostaglandin by the smooth muscles. Then, 150 μl of a reaction solution containing biologically synthesized prostaglandin was added to the perfusion solution, and the amount of the biologically synthesized prostaglandin was measured from the contraction of the smooth muscles. The contraction of the smooth muscles was recorded on a recorder using an isotonic transducer.
The reaction solution containing biologically synthesized prostaglandin was prepared in the following manner.
To 0.4 mg/ml of microsomes of the seminal vesicle of bovine were added 5 mM of L-tryptophan, 0.025 μM of bovine hemoglobin and 3 mμ of glutathione as cofactors. The mixture was incubated together with each of the test compounds shown in Table 4 at 37° C. for 2 minutes, and immediately then, 4 μg/ml of sodium arachidonate was added. The mixture was further incubated at 37° C. for 10 minutes, and immediately then, the prostaglandin activity of the reaction solution was measured by bioassay.
The microsomes of the seminal vesicle of bovine had been prepared by suspending microsomes of the seminal vesicle of bovine (a product of Miles Laboratories, Inc.) in a 50 mM Tris.HCl buffer (pH 7.4) using a glass homogenizer, and stored in ice water prior to use.
ID50 denotes the concentration of each test compound required to inhibit the biosynthesis of prostaglandins by 50%.

For test [2], the system named is platelet aggregation (guinea pig PRP, extra vivo). As to the kind of experiment: Inhibitory effect of compounds on platelet aggregation in extra vivo (Table 4). Also on record: species or system Hartley-strain guinea pigs. The note with it: Cavia porcellus, 100 mg/kg PO, 1 h after administration. As for the experimental part: The effect of the compounds shown in Table 4 on platelet aggregation was assessed using guinea pig in extra vivo.
Each of the test compounds was dissolved in propylene glycol so that its concentration became 100 mg/ml (dosage corresponded to 100 mg/kg) and 30 mg/ml (dosage corresponded to 30 mg/kg). The drug solution was administered either orally or subcutaneously to Hartley-strain guinea pigs (3 per group) having a body weight of 300 to 350 g. As a control, propylene glycol was administered. One hour after the administration, citrated blood was taken out by cardiac puncture, and centrifuged to obtain PRP (see Example 67).
In the case of oral administration, the animals had been fasted overnight.
Into a quvett set in a holder of an aggregometer and prewarmed at 37° C. with stirring, was put 450 μl of the above PRP, and then 50 μl of an aggregating agent was added. The aggregation curve was recorded for an additional 3 minutes, and an increase in light transmittance through PRP after 3 minutes (TB) was recorded (see Example 67). As a control, an increase of transmittance of PRP taken from a guinea pig group administered with propylene glycol alone (TA) was recorded in the same way above. The percent inhibitions were calculated in accordance with the following equation. [formula]
As the aggregating agent, sodium arachidonate (a final concentraton of 0.03 mM) and a collagen suspension (a final concentration of 5 μg/ml) were used.
The percent inhibitions in the above table are averages of three guinea pigs. For details of the above extra vivo test about inhibition of platelet aggregation, the literature references described in Example 67 may be referred to.

Turning to `Cc1cc(C(=O)c2ccccc2)c(C)n1CC(C)O` (stereo not shown) [Compound 102, 2-(3-benzoyl-2,5-dimethylpyrrol-1-yl)-1-methylethanol], the “Percent inhibition of edema” value in the test on carrageenan edema is listed as 8%. The “ID50 (concentration required to inhibit the biosynthesis of prostaglandins by 50%)” value in test [1] is 11.9 µg/mL. In addition, the inhibition at 100 mg/kg was 29 to 55% in test [2] (collagen 5 μg/ml, read-out: Percent inhibition of platelet aggregation, collagen) and 54 to 89% in test [2] (sodium arachidonate 0.03 mM, read-out: Percent inhibition of platelet aggregation, sodium arachidonate).
